# Experimental data reported in the NIST ThermoML archive (doi:10.1021/je025660t).
# ± gives the expanded uncertainty stated by the source.
# Conditions: Liquid
smiles,measurement,setting,value
COCC(C)O (centres undefined) [1-methoxy-2-propanol],vapor or sublimation pressure,331.47 K,9.246 ± 0.14 kPa
same,vapor or sublimation pressure,333.15 K,10.01 ± 0.14 kPa
same,vapor or sublimation pressure,339.12 K,13.11 ± 0.14 kPa
same,vapor or sublimation pressure,343.15 K,15.79 ± 0.14 kPa
same,vapor or sublimation pressure,347.71 K,19.25 ± 0.15 kPa
same,vapor or sublimation pressure,351.56 K,22.64 ± 0.15 kPa
same,vapor or sublimation pressure,353.15 K,24.17 ± 0.15 kPa
same,vapor or sublimation pressure,355.59 K,26.69 ± 0.16 kPa
same,vapor or sublimation pressure,358.15 K,29.57 ± 0.16 kPa
same,vapor or sublimation pressure,360.78 K,32.79 ± 0.17 kPa
same,vapor or sublimation pressure,363.01 K,35.74 ± 0.17 kPa
same,vapor or sublimation pressure,368.23 K,43.48 ± 0.18 kPa
same,vapor or sublimation pressure,373.31 K,52.31 ± 0.19 kPa
CCCCCN [1-pentanamine],vapor or sublimation pressure,322.61 K,13.08 ± 0.07 kPa
same,vapor or sublimation pressure,328.37 K,16.87 ± 0.073 kPa
same,vapor or sublimation pressure,333.14 K,20.65 ± 0.075 kPa
same,vapor or sublimation pressure,338.07 K,25.25 ± 0.078 kPa
same,vapor or sublimation pressure,340.66 K,27.99 ± 0.08 kPa
same,vapor or sublimation pressure,343.16 K,30.85 ± 0.082 kPa
same,vapor or sublimation pressure,345.56 K,33.81 ± 0.084 kPa
same,vapor or sublimation pressure,348.11 K,37.22 ± 0.086 kPa
same,vapor or sublimation pressure,353.15 K,44.75 ± 0.091 kPa
same,vapor or sublimation pressure,358.15 K,53.38 ± 0.097 kPa
same,vapor or sublimation pressure,363.14 K,63.27 ± 0.1 kPa
same,vapor or sublimation pressure,370.62 K,80.72 ± 0.12 kPa
same,vapor or sublimation pressure,377.93 K,101.33 ± 0.13 kPa
CC#N [acetonitrile],vapor or sublimation pressure,302.25 K,14.15 ± 0.071 kPa
same,vapor or sublimation pressure,307.09 K,17.52 ± 0.073 kPa
same,vapor or sublimation pressure,311.49 K,21.13 ± 0.076 kPa
same,vapor or sublimation pressure,313.15 K,22.65 ± 0.077 kPa
same,vapor or sublimation pressure,316.27 K,25.72 ± 0.079 kPa
same,vapor or sublimation pressure,318.18 K,27.78 ± 0.08 kPa
same,vapor or sublimation pressure,320.65 K,30.64 ± 0.082 kPa
same,vapor or sublimation pressure,323.16 K,33.8 ± 0.084 kPa
same,vapor or sublimation pressure,326.16 K,37.9 ± 0.087 kPa
same,vapor or sublimation pressure,328.5 K,41.38 ± 0.089 kPa
same,vapor or sublimation pressure,331.15 K,45.62 ± 0.092 kPa
same,vapor or sublimation pressure,333.15 K,49.06 ± 0.094 kPa
same,vapor or sublimation pressure,335.84 K,54.01 ± 0.097 kPa
same,vapor or sublimation pressure,338.15 K,58.58 ± 0.1 kPa
same,vapor or sublimation pressure,343.18 K,69.62 ± 0.11 kPa
same,vapor or sublimation pressure,348.25 K,82.37 ± 0.12 kPa
same,vapor or sublimation pressure,353.1 K,96.34 ± 0.12 kPa
CCC#N [propanenitrile],vapor or sublimation pressure,309.38 K,10.59 ± 0.069 kPa
same,vapor or sublimation pressure,311.56 K,11.55 ± 0.2 kPa
same,vapor or sublimation pressure,313.15 K,12.55 ± 0.07 kPa
same,vapor or sublimation pressure,315.89 K,14.14 ± 0.071 kPa
same,vapor or sublimation pressure,318.35 K,15.71 ± 0.072 kPa
same,vapor or sublimation pressure,320.51 K,17.22 ± 0.073 kPa
same,vapor or sublimation pressure,323.15 K,19.22 ± 0.074 kPa
same,vapor or sublimation pressure,325.74 K,21.35 ± 0.076 kPa
same,vapor or sublimation pressure,328.27 K,23.64 ± 0.077 kPa
same,vapor or sublimation pressure,330.82 K,26.11 ± 0.079 kPa
same,vapor or sublimation pressure,333.15 K,28.57 ± 0.08 kPa
same,vapor or sublimation pressure,335.82 K,31.64 ± 0.082 kPa
same,vapor or sublimation pressure,338.22 K,34.61 ± 0.085 kPa
same,vapor or sublimation pressure,343.08 K,41.33 ± 0.089 kPa
same,vapor or sublimation pressure,348.09 K,49.32 ± 0.094 kPa
same,vapor or sublimation pressure,353.15 K,58.6 ± 0.1 kPa
